Consider 17 compounds from ChEMBL document CHEMBL1152314, “Antineoplastic agents. 565. Synthesis of combretastatin D-2 phosphate and dihydro-combretastatin D-2” (J Nat Prod, 2009).

In brackets after ≈: the same amount, converted by molar mass. Activity calls are given as the source filed them. No cut-off for these calls is given here.

Series [1] can be described thus: Cytotoxicity against human colon cancer cells. It counts as functional. To be noted: Cancer cell lines.
A short description of series [2]: Cytotoxicity against human breast cancer cells. The following applies: Cancer cell lines. Format: functional.
The next series relates to P388. Briefly: Cytotoxicity against mouse P388 cells. Format: functional. The following applies: read-out: ED50 (the source's name).
A short description of series [3]: Cytotoxicity against human prostate cancer cells. It counts as functional. To be noted: Cancer cell lines.
Series [4] in a line: Cytotoxicity against human pancreatic cancer cells. It counts as functional. The following applies: Cancer cell lines.
Series [5] in a line: Cytotoxicity against human lung cancer cells. It counts as functional. The following applies: Cancer cell lines.
Series [6] is described as follows: Solubility in water at 25 degC. It counts as physicochemical.
Series [7] in a line: Cytotoxicity against human brain cancer cells. The following applies: Cancer cell lines. Format: functional.
The test system of the next series is Enterococcus faecalis. Briefly: Antimicrobial activity against Enterococcus faecalis ATCC 29212. It counts as functional, organism-based.
The next series deals with Cryptococcus neoformans. Nature of the series: Antimicrobial activity against Cryptococcus neoformans ATCC 90112. It counts as functional, organism-based.
The next series relates to Candida albicans. Briefly: Antimicrobial activity against Candida albicans ATCC 90028. It counts as functional, organism-based.
Series [8] relates to Stenotrophomonas maltophilia. Briefly: Antimicrobial activity against Stenotrophomonas maltophilia ATCC 13637. Format: functional, organism-based.
The next series has as its system Micrococcus luteus. Nature of the series: Antimicrobial activity against Micrococcus luteus Presque Isle 456. It counts as functional, organism-based.
The subject of a further series is Staphylococcus aureus. Nature of the series: Antimicrobial activity against Staphylococcus aureus ATCC 29213. It counts as functional, organism-based.
The test system of a further series is Streptococcus pneumoniae. Briefly: Antimicrobial activity against Streptococcus pneumoniae ATCC 6303. Format: functional, organism-based.
A further series concerns Escherichia coli. Briefly: Antimicrobial activity against Escherichia coli ATCC 25922. Format: functional, organism-based.
For another series, the system named is Enterobacter cloacae. Nature of the series: Antimicrobial activity against Enterobacter cloacae ATCC 13047. It counts as functional, organism-based.
A further series deals with Neisseria gonorrhoeae. Nature of the series: Antimicrobial activity against Neisseria gonorrhoeae ATCC 49226. Format: functional, organism-based.
Series [9] is described as follows: Inhibition of tubulin polymerization.

By GI50 is commonly meant the concentration at which growth is held to half of that of the control. A higher GI50 goes with lower sensitivity of the cells. The term solubility denotes the dissolved amount per volume that the medium holds. Regarding `C1COCCN1.C1COCCN1.O=C1CCc2ccc(OP(=O)(O)O)c(c2)Oc2ccc(cc2)/C=C\CO1`, the GI50 in series [1], in series [2], in [3], in series [4], in series [5] and in [7] was above 10 µg/mL each time. Besides, the EC50 in the series with P388 was 86.2 µg/mL. Besides, the solubility in series [6] (water, read-out: solubility) stood at 5 mg/mL.

With `COc1ccc(CCC(=O)OC/C=C\c2ccc(F)c([N+](=O)[O-])c2)cc1O`, the EC50 in the series with P388 is 27 µg/mL (≈ 71.9 µM).

In the case of `O=C1CCc2ccc(OP(=O)([O-])[O-])c(c2)Oc2ccc(cc2)/C=C\CO1.[Na+].[Na+]`, the GI50 in series [1] is 25.5 µg/mL; in series [2], 30.5 µg/mL; in series [3], 18.2 µg/mL; in series [4] it was 22.1 µg/mL; in series [5] it was 13.3 µg/mL; in series [7], 36.3 µg/mL. Besides, the EC50 in the series with P388 was 23.9 µg/mL. In [6] (buffer), this compound gave a solubility above 70 mg/mL.

For `COc1ccc(CCC(=O)OC/C=C\c2ccc(Br)cc2)cc1O`, the GI50 in series [1] is 17.1 µg/mL (≈ 43.7 µM); in series [2], 16.4 µg/mL (≈ 41.9 µM); in series [3] it was 8.9 µg/mL (≈ 22.7 µM); in series [4], 16.4 µg/mL (≈ 41.9 µM); in [5] it was 16.5 µg/mL (≈ 42.2 µM); in series [7] it was 18.5 µg/mL (≈ 47.3 µM). Further, the EC50 in the series on P388 was above 100 µg/mL.

As to `O=C1CCc2ccc(O)c(c2)Oc2ccc(cc2)CCCO1` [CORNICULATOLIDE A], the result (with Enterococcus faecalis; in the series on Cryptococcus neoformans; in the series with Candida albicans; in series [8]; in the series on Micrococcus luteus; with Staphylococcus aureus) was inactive. The outcome in the series with Streptococcus pneumoniae, in the series with Escherichia coli, with Enterobacter cloacae and with Neisseria gonorrhoeae was inactive. Further, the EC50 with P388 was above 100 µg/mL.

Take `O=C(CCc1ccc(OCc2ccccc2)c(O)c1)OC/C=C\c1ccc(F)c([N+](=O)[O-])c1`: in the series with P388, the EC50 was above 100 µg/mL.

For `COc1ccc(CCC(=O)OCCCc2ccc(Br)cc2)cc1O`, in the series on P388, the EC50 was above 100 µg/mL.

As for `COc1ccc2cc1Oc1ccc(cc1)/C=C\COC(=O)CC2`, the GI50 in series [1] worked out at 9.4 µg/mL (≈ 30.3 µM); in series [2] it was 0.83 µg/mL (≈ 2.67 µM); in series [3], 5.6 µg/mL (≈ 18 µM); in series [4] it was 7.3 µg/mL (≈ 23.5 µM); in [5], 6.6 µg/mL (≈ 21.3 µM); in [7] it was 2.2 µg/mL (≈ 7.09 µM). Further, the EC50 in the series with P388 turned out to be 8.1 µg/mL (≈ 26.1 µM).

As for `O=C(CCc1ccc(OCc2ccccc2)c(O)c1)OC/C=C\c1ccc(Br)cc1`, in the series on P388, the EC50 was above 100 µg/mL.

In the case of `O=C1CCc2ccc(OP(=O)([O-])[O-])c(c2)Oc2ccc(cc2)/C=C\CO1.[K+].[K+]`, the GI50 in [1] turned out to be 40.6 µg/mL; in [2], 34.5 µg/mL; in [3], 14.4 µg/mL; in series [4], 40.1 µg/mL; in [5], 27.8 µg/mL; in series [7], 45.2 µg/mL. This compound returned a solubility in series [6] (buffer) above 50 mg/mL.

With `O=C1CCc2ccc(OCc3ccccc3)c(c2)Oc2ccc(cc2)/C=C\CO1`, the EC50 in the series with P388 is above 100 µg/mL.

On to `O=C1CCc2ccc(OP(=O)([O-])[O-])c(c2)Oc2ccc(cc2)/C=C\CO1.[Li+].[Li+]`, for which the GI50 in series [1] amounted to 27.5 µg/mL; in series [2] it was 26.1 µg/mL; in [3], 4.3 µg/mL; in series [4], 35.9 µg/mL; in series [5], 14.4 µg/mL; in series [7], 37.9 µg/mL. The EC50 in the series on P388 is 27.1 µg/mL. This compound also had a solubility in [6] (buffer) of 20 mg/mL.

In general, IC50 refers to the concentration needed to halve the response being measured. Higher therefore signals lower potency. As for `COc1ccc(C[C@@H](O)c2cc(OC)c(OC)c(OC)c2)cc1O` [COMBRETASTATIN], the EC50 in the series on P388 was 0.011 µg/mL (≈ 0.0329 µM). For the same compound, in series [9], the IC50 came to 5 µM.

As for `O=C1CCc2ccc(OCc3ccccc3)c(c2)Oc2ccc(cc2)CCCO1`, the EC50 in the series with P388 is above 100 µg/mL.

In the case of `O=C1CCc2ccc(O)c(c2)Oc2ccc(cc2)/C=C\CO1`, the GI50 in [1] is above 10 µg/mL; in [2], 6.6 µg/mL (≈ 22.3 µM); in [3], 2.7 µg/mL (≈ 9.11 µM); in series [4], 4.8 µg/mL (≈ 16.2 µM); in series [5] it was 6 µg/mL (≈ 20.2 µM); in series [7], 4.7 µg/mL (≈ 15.9 µM). The outcome (with Enterococcus faecalis; in the series on Cryptococcus neoformans; in the series with Candida albicans; in series [8]; with Micrococcus luteus; in the series with Staphylococcus aureus) was inactive. Also, the result in the series with Streptococcus pneumoniae, in the series on Escherichia coli, in the series on Enterobacter cloacae and in the series on Neisseria gonorrhoeae was inactive. Besides, the EC50 in the series with P388 is 5.2 µg/mL (≈ 17.5 µM). In addition, the solubility in series [6] (buffer) was found to be 0.5 mg/mL (≈ 1690 µM). Further, the IC50 in series [9] was above 40 µM.

Turning to `O=C1CCc2ccc(O)c(c2)Oc2ccc(cc2)[C@H]2O[C@@H]2CO1`, in the series on P388, the EC50 amounted to 3.3 µg/mL (≈ 10.6 µM). This compound also displayed an IC50 in series [9] above 40 µM.

On to `COc1ccc(/C=C\c2cc(OC)c(OC)c(OC)c2)cc1O` [COMBRETASTATIN A4], for which, in the series on P388, the EC50 came out at 0.0034 µg/mL (≈ 0.0107 µM).
